Results from paper PMC11784221, “Platelet factor 4-derived C15 peptide broadly inhibits enteroviruses by disrupting viral attachment” (Journal of Virology, 2025).
Where no end group is shown, it is not given here.

Key:
[1] = C15 alone in neonatal mice without CA6 infection (toxicity); type: in vivo, ICR mice
Protocol: To investigate the anti-viral efficacy of C15 against CA6 in vivo, we established a lethal infection model using 1-day-old ICR mice. The mice were infected with CA6 at a concentration of 10^7 TCID50 and then treated with two different concentrations of C15 (1 and 5 mg/kg). The mice were monitored over a period of 7 days to assess various indicators (Fig. 7A). The mice in the control group, which received Dulbecco’s Modified Eagle Medium (DMEM) alone, began to succumb to the infection on day 4, with all mice dying by day 6. On day 6, the average clinical score of the mice in the control group was 5. […] Treatment with 1 mg/kg C15 improved survival rates by 60%, while 5 mg/kg C15 provided complete protection, achieving a 100% survival rate (Fig. 7D).
ICR pregnant specific pathogen-free mice were purchased from Beijing Vital River Laboratory. Pregnant mice gave birth approximately 5 days after arrival at the laboratory. One day-old ICR neonatal mice were used to establish the CA6 infection mouse model. The CA6 virus, at a concentration of 10^7 TCID50/mL, was mixed with varying concentrations of C15 (1 and 5 mg/kg) and intracranially injected into the 1 day-old neonatal mice (10 µL per mouse). Five experimental groups were designed, and observations of various indicators were conducted over the subsequent 7 days, as well as samples collected for analysis. […]

RD cells = conditions: 48 h treatment, CCK-8, absorbance 450 nm, n = 3
CA6 [2] = conditions: read-out: EC50 for CA6; RD cells, 48 h, intracellular VP1 mRNA by RT-qPCR vs GAPDH, three independent experiments, four-parameter fit
CA16 = conditions: read-out: EC50 for CA16; RD cells, 48 h, intracellular VP1 mRNA by RT-qPCR vs GAPDH, three independent experiments, four-parameter fit
EV71 = conditions: read-out: EC50 for EV71; RD cells, 48 h, intracellular VP1 mRNA by RT-qPCR vs GAPDH, three independent experiments, four-parameter fit
EVD68 [3] = conditions: read-out: EC50 for EVD68; RD cells, 48 h, intracellular VP1 mRNA by RT-qPCR vs GAPDH, three independent experiments, four-parameter fit
[4] = biological target: Enterovirus D68 (EVD68) virion, strain US/KY/14-18953 (enterovirus D68)
[5] = biological target: Coxsackievirus A6 (CA6) virion, strain changchun046/CHN/2013 (coxsackievirus A6)
EVD68 [6] = assay: Purified PF4-His added to cells infected with EVD68; type: cell-based, enterovirus D68; conditions: increasing doses of purified PF4-His, 48 h, Western blot, RT-qPCR, TCID50
Protocol: (§1) (A and B) HEK-293T cells transfected with cDNA-PF4-Myc or the VR1012 expression vector serving as a control. […] (C and D) Viral loads in the supernatant were evaluated by measuring VP1 gene mRNA levels using reverse transcription quantitative PCR (RT-qPCR). (E and H) PF4-His proteins expressed in Escherichia coli were added to the cell supernatant at the indicated concentration, and the cells were simultaneously infected with CA6 or EVD68. Cell lysates and supernatants (concentrated 100-fold) were collected at 48 h. Western blot was performed to detect the viral VP1 protein in the cells and supernatant, with tubulin serving as a loading control. (F and I) Intracellular mRNA levels of VP1 were determined by RT-qPCR, using GAPDH as a control. (G and J) 50% tissue culture infective dose (TCID50) assays were performed using supernatants collected from infected rhabdomyosarcoma cells at 48 h, containing various concentrations of PF4-His.
(§2) PF4 is a secreted protein. To further assess its anti-viral potential, PF4 proteins were expressed and purified from Escherichia coli. […]
(§3) The cDNA of PF4-His with His tag at the N-terminus was synthesized and inserted into PEXs-DH by Comate Bioscience Company and expressed in E. coli BL21-derived cells. […] The […] of the resulting proteins was determined through BCA Protein Assay Kits (Epizyme, #ZJ102L) analysis.

CA6 [7] = assay: Purified PF4-His added to cells infected with CA6; type: cell-based, coxsackievirus A6; conditions: increasing doses of purified PF4-His, 48 h, Western blot, RT-qPCR, TCID50
Protocol: as §1, §2, §3

QAPLYKKIIKKLLES [C15]
Toxicity in neonatal mice (clinical scores, body weight, survival rates versus DMEM control) ([1]; 5 mg/kg C15 without CA6 infection, intracranial, 1-day-old ICR mice): no toxicity | VITT-related symptoms (weight loss, nosebleeds, gum bleeding, gastrointestinal bleeding) ([1]; injection of C15 alone in mice): did not result in VITT-related symptoms | 50% cytotoxic concentration (RD cells): > 100 µM | EC50 (CA6 [2]): 3.12 nM | EC50 (CA16): 10 nM | EC50 (EV71): 5.36 nM | EC50 (EVD68 [3]): 5.41 nM

B1: C15 peptide (C-terminal 15 amino acids of PF4) (peptide)
peptide: QAPLYKKIIKKLLES
EC50 of inhibition of EVD68 replication in RD cells (intracellular VP1 mRNA by RT-qPCR, 48 h) [4]: 5.41 nM | EC50 of inhibition of CA6 replication in RD cells (intracellular VP1 mRNA by RT-qPCR, 48 h) [5]: 3.12 nM

B2: PF4-His: Platelet factor 4 with His tag at the N-terminus, expressed in E. coli and purified (protein)
chain: EAEEDGDLQCLCVKTTSQVRPRHITSLEVIKAGPHCPTAQLIATLKNGRKICLDLQAPLYKKIIKKLLES
modifications: left off: Myc, N-terminal, kept
notes: Platelet factor 4 with His tag at the N-terminus, expressed in E. coli and purified
VP1 protein and mRNA levels of EVD68 and viral titer in supernatant (EVD68 [6]): gradually decreased | VP1 protein and mRNA levels of CA6 and viral titer in supernatant (CA6 [7]): gradually decreased
